Reference: the METLIN SMRT retention time set (Domingo-Almenara et al. 2019)

Assay: gradient 5% acetonitrile 3 min, to 50% in 2 min, to 85% in 15 min, held 3 min, 100 µL/min
Details: column: Zorbax Extend-C18 2.1 x 50 mm; eluents: water / acetonitrile, 0.1% formic acid
Procedure, shortened: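 A Zorbax Extend-C18 column (2.1 × 50 mm, 1.8 μm) run at 100 μL/min with water and acetonitrile, both containing 0.1% formic acid, separated mixtures of ~100 pure standards. The HPLC was coupled to a quadrupole time-of-flight mass spectrometer operated in positive and negative ionization mode, with dead and dwell volumes of 40 μL and 900 μL. Each retention time was taken from a computationally picked adduct peak that was then manually inspected.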

| SMILES | RP-LC retention time |
| --- | --- |
| Cc1cc(C)cc(NC(=O)Cn2cnc(C)c(C)c2=O)c1 | 710 s |
| CNC(=O)c1ccc2c(c1)CCCN2C(=O)c1ccc(F)cc1 | 698 s |
| CC(C)n1c(N2CCN(C(=O)c3cccs3)CC2)cc(=O)n(C(C)C)c1=O | 812 s |
| CCCn1cc2c3c(cccc31)CN(C(=O)Nc1cc(OC)c(OC)c(OC)c1)CC2 | 970 s |
| O=C(c1ccc(C(F)(F)F)cc1)N1CCN(c2nnc3ccccn23)CC1 | 698 s |
| O=C1C(c2ccncc2)N(CCCc2ccccc2)C(=O)CN1c1ccccc1 (centres undefined) | 719 s |
| CCCC(=O)N1CC(c2nc(-c3ccc(F)cc3)no2)C2(CCOCC2)C1 (centres undefined) | 872 s |
| O=C(CNS(=O)(=O)Cc1ccccc1)N1CCOC(c2ccccc2)C1 (centres undefined) | 784 s |
| CN1C(=O)c2cc(S(=O)(=O)NCc3ccc(Cl)cc3)ccc2Oc2cccnc21 | 968 s |
| CCOC(=O)c1[nH]c(C)c(CCC(=O)N2CCCC(C(=O)NC3CCCCC3)C2)c1C (centres undefined) | 822 s |
| COC1=C(OC)C(=O)c2ccccc2C1=O | 878 s |
| CCCCCn1c(=O)c2ccccc2n(Cc2nc(-c3ccc4c(c3)OCO4)no2)c1=O | 1180 s |
| CSc1ncccc1C(=O)Nc1ccc(CC(=O)NC(C)(C)CO)cc1 | 633 s |
| CCNC(=O)C1CCCN(c2nc3ncn(CC(=O)Nc4cc(Cl)ccc4C)c(=O)c3s2)C1 (centres undefined) | 741 s |
| COC(=O)c1c(NCCO)c2cccc(Cl)c2[nH]c1=O | 610 s |
| CC(=O)N1c2ccc(S(=O)(=O)N3CCCCC3)cc2CC1C(=O)NCCN(C)C1CCCCC1 (centres undefined) | 655 s |
| O=C(Nc1nccs1)c1ccc([N+](=O)[O-])cc1Cl | 722 s |
| O=S(=O)(c1ccc2nncn2c1)N(Cc1ccc(F)cc1)c1ccc(F)cc1 | 861 s |
| Cc1[nH]c2ccccc2c1CC(=O)NCCc1c[nH]c2ccccc12 | 826 s |
| COc1cccc(S(=O)(=O)N2CCC3(CC2)CC(OCC2CC2)CCO3)c1 (centres undefined) | 1010 s |
| CC(C)n1nc(CNC(=O)c2ccccn2)c2ccccc21 | 874 s |
| CCOC(=O)CCC(=O)NCC1(c2ccc(OC)cc2)CCCC1 | 856 s |
| O=C(NCc1ccc(-c2noc(CCc3ccccc3)n2)s1)C1CC1 | 915 s |

| SMILES | RP-LC retention time |
| --- | --- |
| O=S(=O)(Cc1ccccc1Cl)N1CCc2nc(-c3ccc(Cl)cc3)ncc2C1 | 1220 s |
| CC(C)Cn1cc(S(=O)(=O)Nc2cccc(C#N)c2)c2cccnc21 | 916 s |
| COCCNC(=O)c1nc(N2CCSCC2)c2c(C)cc(C)nc2n1 | 591 s |
| CCC1=C(c2ccc(C)cc2)S(=O)(=O)N=C1N1CCC(C(=O)NCc2ccco2)CC1 | 793 s |
| CCCN1CCN(c2ccc(-c3nc(-c4ccccc4)no3)cn2)CC1 | 715 s |
| Cc1ccc2oc(-c3noc(C(=O)NC(C)Cc4ccco4)n3)c(C)c2c1 (centres undefined) | 1180 s |
| COc1ccc(C2C=C(c3ccc4c(c3)OCO4)Oc3c2c(=O)oc2ccccc32)cc1OC (centres undefined) | 1090 s |
| COc1ccc(CN2C[C@@H]3C(=O)N(CCc4ccccc4)C(=O)[C@@H]3C2)c(OC)c1 | 728 s |
| Cc1nnc2ccc(S(=O)(=O)N(Cc3ccccc3)c3cccc(F)c3)cn12 | 866 s |
| Cc1noc(C)c1CN1CCC(NC(=O)Cc2ccc(F)cc2)C1 (centres undefined) | 597 s |
| CN1C(=O)C(C)(C(=O)Nc2ccc(F)cc2)Oc2cccnc21 (centres undefined) | 847 s |
| Cc1noc(-c2nc(-c3cccnc3)no2)n1 | 736 s |
| CCc1nnsc1C(=O)Nc1ccc(S(=O)(=O)Nc2onc(C)c2C)cc1 | 759 s |
| CCOC(=O)Cc1ccc(NC(=O)NC2CCN(c3ccc(C)c(C)c3)C2=O)cc1 (centres undefined) | 877 s |
| CCCn1ccc2sc(C)c(C(=O)NCCN3CCCCC3CC)c2c1=O (centres undefined) | 673 s |
| O=S(=O)(c1ccc(Cl)c(-c2nnc(-c3ccccc3)o2)c1)N(CCO)CCO | 739 s |
| CCn1c(CCC(=O)NCc2cccc(F)c2)nc2ccccc2c1=O | 700 s |
| CCc1nnc(C2CN(C)CC23CCN(S(=O)(=O)c2ccc(C)c(Cl)c2)CC3)o1 (centres undefined) | 675 s |
| Cc1[nH]c(C(=O)N2CCC(CC(=O)N3CCCCCC3)CC2)c(C)c1C(=O)OC(C)C | 879 s |
| CCOc1ccc(Cl)cc1S(=O)(=O)N1CCC(C(=O)NCCCOC)CC1 | 761 s |
| O=S(=O)(c1cccc(F)c1)N1CCC(Cc2nncn2-c2ccccc2)C1 (centres undefined) | 752 s |
| COc1ccc(C)cc1NC(=O)C1CCCN(S(=O)(=O)c2c[nH]c(C(=O)N3CCCC3)c2)C1 (centres undefined) | 824 s |
| CC(=O)N1CCc2cc(N3CC(C(=O)Nc4ccccc4OC(F)(F)F)CC3=O)ccc21 (centres undefined) | 766 s |

| SMILES | RP-LC retention time |
| --- | --- |
| Cc1ccc(-n2cc3c(c(C(=O)Nc4ccc5c(c4)OCCO5)c2=O)CC(C)(C)CC3=O)cc1 | 1070 s |
| Cc1cc(C)cc(S(=O)(=O)Nc2ccc3nc(N4CCN(C)CC4)cc(C(=O)O)c3c2)c1 | 612 s |
| CCOC(=O)c1ccccc1NC(=O)Cn1nc2c(Sc3ccccc3)nccn2c1=O | 1060 s |
| CN(CCCNC(=O)C1CCN(c2nnc3ccc(Cl)cn23)CC1)c1ccccc1 | 606 s |
| O=C(Nc1cccc(Br)c1)C1CCN(c2nccnc2Sc2ccccc2)CC1 | 1190 s |
| CC(C)N1CCn2cc(S(=O)(=O)Nc3ccc(F)cc3F)cc2C1=O | 759 s |
| CCc1cccc(NC(=O)N2CCc3cn(CC)c4cccc(c34)C2)c1 | 1050 s |
| O=C(CCn1c(=O)oc2ccccc21)NCc1ccc2c(c1)OCO2 | 941 s |
| Cc1ccc2c(c1)[C@H]1OCCC[C@H]1C(c1cccc(O)c1)N2 (some centres undefined) | 928 s |
| Cn1nc(C(=O)N2CCCC2)c2c1CCN(C(=O)CCC(=O)NC1CCCCCC1)C2 | 696 s |
| Cn1c(=O)c2ccn(CC(=O)Nc3cccc(C(F)(F)F)c3)c2n(C)c1=O | 705 s |
| Cc1cccc(CN2CCc3nc(C)n(CC(=O)Nc4ccc5c(c4)OCO5)c(=O)c3C2)c1 | 575 s |
| CSc1ccc(CCNC(=O)Cn2c(=O)c3cccn3c3ccc(F)cc32)cc1 | 897 s |
| Cc1cc(=O)n(CC(=O)Nc2cc(C)on2)c(N2CCc3ccccc3C2)n1 | 699 s |
| CCCOc1ccc(CN2C[C@@H]3C(=O)N(CCCN4CCCC4=O)C(=O)[C@@H]3C2)cc1 | 630 s |
| CN1C(=O)c2cc(C(=O)NCCCN3CCc4ccccc4C3)nn2CC1(C)C(=O)NC1CCCC1 (centres undefined) | 623 s |
| c1ccc(-n2nnc(-c3noc(-c4ccccn4)n3)c2-c2ccncc2)cc1 | 718 s |
| Cc1ccc(CN2CCN(CC(=O)N3CCN(c4cccc(Cl)c4)CC3)C(=O)C2=O)cc1 | 866 s |
| COc1ccc(Cc2noc(Cc3nnc(-c4cccc(Cl)c4)o3)n2)cc1 | 1010 s |
| CCN1CCN(c2cc(C)c3cc(NC(=O)CC4CCCCC4)ccc3n2)CC1 | 594 s |
| Cc1nc(CCNC(=O)[C@H]2CCCN2C(=O)c2ccccc2)cs1 | 622 s |
| CCC(C(=O)N1CCOCC1)n1c2ccccc2c2cnn(C)c(=O)c21 (centres undefined) | 764 s |
| COc1ccc(C[C@H](C)NC[C@@H](O)c2ccc(O)c(NC=O)c2)cc1 | 663 s |

| SMILES | RP-LC retention time |
| --- | --- |
| COc1ccc(-c2cc(C(=O)N3CCN(S(=O)(=O)c4ccc(C)cc4C)CC3)[nH]n2)cc1 | 924 s |
| CCCC1c2nccn2CCCN1C(=O)c1cccn1C (centres undefined) | 599 s |
| COc1ccc(N2C(=O)C3(CCCCC3)C2C(=O)N(C)C)cc1 (centres undefined) | 750 s |
| CC(C)CNc1ccc2nncn2n1 | 644 s |
| CCOc1ccccc1OCc1nn2c(CSc3ccccc3)nnc2s1 | 1000 s |
| Cc1c(-c2noc(-c3ccccc3F)n2)nnn1Cc1ccccc1 | 1030 s |
| CCc1c(C(=O)O)nnn1-c1ccc(C)c(F)c1 | 744 s |
| COCCC(=O)NC1CCN(C2=NS(=O)(=O)C(c3ccc(C(C)C)cc3)=C2C)CC1 | 813 s |
| Cc1cc(C)c(S(=O)(=O)N2CCCC(C(=O)Nc3ccccc3F)C2)c(C)c1 (centres undefined) | 1090 s |
| CCOCCCNC(=O)CCCn1c2ccccc2c2cnn(C)c(=O)c21 | 728 s |
| O=C(Cn1ccc2ccc(N3CCOCC3)nc21)N1CCC(Cc2ccccc2)CC1 | 1050 s |
| c1ccc(-n2ncc3cccnc32)cc1 | 624 s |
| CCN1CCCC1CNC(=O)c1nnc(-c2ccc(S(=O)(=O)N3CCC(C)CC3)cc2)o1 (centres undefined) | 703 s |
| O=C(CSc1cc(N2CCN(c3ccccc3F)CC2)ncn1)Nc1ccccc1F | 1190 s |
| COCCN1C(=O)c2ccccc2C(C(=O)NCCCN2CCCC(C)C2)C1c1cccs1 (centres undefined) | 643 s |
| CCC1CCCCN1CCCNC(=O)Cn1c(=O)c2cccn2c2ccc(F)cc21 (centres undefined) | 641 s |
| Cc1ccc(Nc2cc(C)nc(N3CCN(C(=O)Nc4ccc(Cl)cc4)CC3)n2)cc1 | 908 s |
| CS(=O)(=O)N(C1CCOCC1)C1CCN(C(=O)c2ccc(Cl)cc2)CC1 | 840 s |
| O=C(CN1CCc2[nH]c3c(F)c(Cl)ccc3c(=O)c2C1)Nc1ccc2c(c1)OCCO2 | 643 s |
| CCc1nc(-c2csc(S(=O)(=O)N3CCCC(C(=O)Nc4c(C)cc(C)cc4C)C3)c2)no1 (centres undefined) | 1210 s |
